Test results as given in patent publication US10550105B2 (Ribon Therapeutics Inc., priority 2018, dated 2020).

Molecular target: PARP7 (Homo sapiens (Human), UniProt Q7Z3E1)
Test: Enzymatic assay for inhibition of PARP7: TR-FRET displacement of biotinylated Probe A from the TIPARP active site
Assay type: binding
Conditions: Table A-1
Summary of the method: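 Read-out: 665/615 nm emission ratio (ex 320 nm, 90 μs delay) indexing bound TIPARP–Probe A. Final incubation 30 min, 25° C; compounds in dose response. Curve fit of % inhibition vs concentration; Hill slope floating or fixed at 1 (3-parameter).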

Chain of PARP7 (Q7Z3E1 whole entry): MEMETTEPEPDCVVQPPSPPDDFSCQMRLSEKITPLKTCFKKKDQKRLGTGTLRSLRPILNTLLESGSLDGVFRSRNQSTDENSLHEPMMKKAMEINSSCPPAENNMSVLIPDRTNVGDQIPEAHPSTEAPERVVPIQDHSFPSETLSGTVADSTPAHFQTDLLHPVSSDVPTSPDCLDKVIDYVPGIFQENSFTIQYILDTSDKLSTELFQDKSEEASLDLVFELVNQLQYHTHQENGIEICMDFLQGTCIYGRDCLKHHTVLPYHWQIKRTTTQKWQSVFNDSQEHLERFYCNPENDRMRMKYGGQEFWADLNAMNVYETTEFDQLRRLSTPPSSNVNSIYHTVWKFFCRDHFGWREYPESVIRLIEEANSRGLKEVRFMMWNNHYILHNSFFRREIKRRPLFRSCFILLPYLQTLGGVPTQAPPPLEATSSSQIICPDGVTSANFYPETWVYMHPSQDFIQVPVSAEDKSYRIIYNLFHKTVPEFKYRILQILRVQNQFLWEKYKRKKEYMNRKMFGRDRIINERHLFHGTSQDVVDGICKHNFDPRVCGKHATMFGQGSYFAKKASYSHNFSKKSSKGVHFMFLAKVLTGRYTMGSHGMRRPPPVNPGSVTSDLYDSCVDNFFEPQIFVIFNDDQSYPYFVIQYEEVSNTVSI

Row | SMILES | IC50 [nM]
1 | N#Cc1ccc(N2CCN(C(=O)CCCOCc3cccc4c3CN(c3cn[nH]c(=O)c3C(F)(F)F)C4)CC2)nc1 [Example 496, 6-(4-(4-((2-(6-Oxo-5-(trifluoromethyl)-1,6-dihydropyridazin-4-yl)isoindolin-4-yl)methoxy)butanoyl)piperazin-1-yl)nicotinonitrile] | < 100
2 | O=c1[nH]ncc(N2C[C@H]3CCCN[C@H]3C2)c1C(F)(F)F [Example 497, 5-((4aR,7aR)-Octahydro-6H-pyrrolo[3,4-b]pyridin-6-yl)-4-(trifluoromethyl)pyridazin-3(2H)-one] | ≥ 1000
3 | O=c1[nH]ncc(N2C[C@@H]3CCCN[C@@H]3C2)c1C(F)(F)F [Example 498, 5-((4aS,7aS)-Octahydro-6H-pyrrolo[3,4-b]pyridin-6-yl)-4-(trifluoromethyl)pyridazin-3(2H)-one] | ≥ 1000
4 | N#Cc1ccc(N2CCN(C(=O)COCCNc3cn[nH]c(=O)c3C(F)(F)F)CC2)nc1 [Example 499, 6-[4-[2-(2-[[6-Oxo-5-(trifluoromethyl)-1,6-dihydropyridazin-4-yl]amino]ethoxy)acetyl]piperazin-1-yl]pyridine-3-carbonitrile] | < 100
5 | N#Cc1ccc(N2CCN(C(=O)CCOCCNc3cn[nH]c(=O)c3C(F)(F)F)CC2)nc1 [Example 500, 6-[4-[3-(2-[[6-Oxo-5-(trifluoromethyl)-1,6-dihydropyridazin-4-yl]amino]ethoxy)propanoyl]piperazin-1-yl]pyridine-3-carbonitrile] | < 100
6 | N#Cc1ccc(N2CCN(C(=O)CCOCCOc3cn[nH]c(=O)c3C(F)(F)F)CC2)nc1 [Example 501, 6-[4-[3-(2-[[6-Oxo-5-(trifluoromethyl)-1,6-dihydropyridazin-4-yl]oxy]ethoxy)propanoyl]piperazin-1-yl]pyridine-3-carbonitrile] | < 100
7 | N#Cc1ccc(N2CCN(C(=O)CCNCCOc3cn[nH]c(=O)c3C(F)(F)F)CC2)nc1 [Example 502] | ≥ 1000
8 | O=C(CCOCCNc1cn[nH]c(=O)c1C(F)(F)F)N1CCN(c2ncc(Cl)cn2)CC1 [Example 503, 5-[(2-[3-[4-(5-Chloropyrimidin-2-yl)piperazin-1-yl]-3-oxopropoxy]ethyl)amino]-4-(trifluoromethyl)-2,3-dihydropyridazin-3-one] | < 100
9 | O=C(CCOCCNc1cn[nH]c(=O)c1C(F)(F)F)N1CCN(c2ccc(C(F)(F)F)cn2)CC1 [Example 504, 5-[[2-(3-Oxo-3-[4-[5-(Trifluoromethyl)pyridin-2-yl]piperazin-1-yl]propoxy)ethyl]amino]-4-(trifluoromethyl)-2,3-dihydropyridazin-3-one] | < 100
10 | O=C(CCOCCNc1cn[nH]c(=O)c1C(F)(F)F)N1CCN(c2ncc(C(F)(F)F)cn2)CC1 [Example 505, 5-[[2-(3-Oxo-3-[4-[5-(Trifluoromethyl)pyrimidin-2-yl]piperazin-1-yl]propoxy)ethyl]amino]-4-(trifluoromethyl)-2,3-dihydropyridazin-3-one] | < 100
11 | N#Cc1ccc(N2CCN(C(=O)CCOCCNc3cn[nH]c(=O)c3Cl)CC2)nc1 [Example 507] | < 100
12 | O=C(CCOCCNc1cn[nH]c(=O)c1Cl)N1CCN(c2ncc(C(F)(F)F)cn2)CC1 [Example 508, 4-Chloro-5-[[2-(3-oxo-3-[4-[5-(trifluoromethyl)pyrimidin-2-yl]piperazin-1-yl]propoxy)ethyl]amino]-2,3-dihydropyridazin-3-one] | < 100
13 | O=C(CCOCCNc1cn[nH]c(=O)c1Cl)N1CCN(c2ccc(C(F)(F)F)cn2)CC1 [Example 509, 4-Chloro-5-[[2-(3-oxo-3-[4-[5-(trifluoromethyl)pyridin-2-yl]piperazin-1-yl]propoxy)ethyl]amino]-2,3-dihydropyridazin-3-one] | < 100
14 | CN(CCOCCC(=O)N1CCN(c2ccc(C#N)cn2)CC1)c1cn[nH]c(=O)c1C(F)(F)F [Example 510, 6-[4-[3-(2-[Methyl[6-oxo-5-(trifluoromethyl)-1,6-dihydropyridazin-4-yl]amino]ethoxy)propanoyl]piperazin-1-yl]pyridine-3-carbonitrile] | < 100
15 | N#Cc1ccc(N2CCN(C(=O)CCCCCNc3cn[nH]c(=O)c3C(F)(F)F)CC2)nc1 [Example 511, 6-[4-(6-[[6-Oxo-5-(trifluoromethyl)-1,6-dihydropyridazin-4-yl]amino]hexanoyl)piperazin-1-yl]pyridine-3-carbonitrile] | < 100
16 | N#Cc1ccc(N2CCN(C(=O)CCCCCOc3cn[nH]c(=O)c3C(F)(F)F)CC2)nc1 [Example 512, 6-[4-(6-[[6-Oxo-5-(trifluoromethyl)-1,6-dihydropyridazin-4-yl]oxy]hexanoyl)piperazin-1-yl]pyridine-3-carbonitrile] | < 100
17 | C[C@@H](COCCC(=O)N1CCN(c2ccc(C#N)cn2)CC1)Nc1cn[nH]c(=O)c1C(F)(F)F [Example 513A, (S)-6-(4-(3-(2-(6-Oxo-5-(trifluoromethyl)-1,6-dihydropyridazin-4-ylamino)propoxy)propanoyl)piperazin-1-yl)nicotinonitrile] | < 100
18 | C[C@H](COCCC(=O)N1CCN(c2ccc(C#N)cn2)CC1)Nc1cn[nH]c(=O)c1C(F)(F)F [Example 513B, (R)-6-(4-(3-(2-(6-Oxo-5-(trifluoromethyl)-1,6-dihydropyridazin-4-ylamino)propoxy)propanoyl)piperazin-1-yl)nicotinonitrile] | 100 to 1000

Row | SMILES | IC50 [nM]
19 | N#Cc1ccc(N2CCN(C(=O)CCOC[C@H](Nc3cn[nH]c(=O)c3C(F)(F)F)c3ccccc3)CC2)nc1 [Example 514A, 6-(4-[3-[(2R)-2-[[6-Oxo-5-(trifluoromethyl)-1,6-dihydropyridazin-4-yl]amino]-2-phenylethoxy]propanoyl]piperazin-1-yl)pyridine-3-carbonitrile] | ≥ 1000
20 | N#Cc1ccc(N2CCN(C(=O)CCOC[C@@H](Nc3cn[nH]c(=O)c3C(F)(F)F)c3ccccc3)CC2)nc1 [Example 514B, 6-(4-[3-[(2S)-2-[[6-Oxo-5-(trifluoromethyl)-1,6-dihydropyridazin-4-yl]amino]-2-phenylethoxy]propanoyl]piperazin-1-yl)pyridine-3-carbonitrile] | < 100
21 | N#Cc1ccc(N2CCN(C(=O)CCOC[C@H](Cc3ccccc3)Nc3cn[nH]c(=O)c3C(F)(F)F)CC2)nc1 [Example 515B] | < 100
22 | CN(CCOc1cn[nH]c(=O)c1C(F)(F)F)CCC(=O)N1CCN(c2ccc(C#N)cn2)CC1 [Example 516] | < 100
23 | N#Cc1ccc(N2CCN(C(=O)COCCCOc3cn[nH]c(=O)c3C(F)(F)F)CC2)nc1 [Example 517, 6-(4-(2-(3-(6-Oxo-5-(trifluoromethyl)-1,6-dihydropyridazin-4-yloxy)propoxy)acetyl)piperazin-1-yl)nicotinonitrile] | < 100
24 | O=C(CCOCCOc1cn[nH]c(=O)c1Cl)N1CCN(c2ncc(C(F)(F)F)cn2)CC1 [Example 520, 4-Chloro-5-[2-(3-oxo-3-[4-[5-(trifluoromethyl)pyrimidin-2-yl]piperazin-1-yl]propoxy)ethoxy]-2,3-dihydropyridazin-3-one] | < 100
25 | N#Cc1ccc(N2CCN(C(=O)CCOCCOc3cn[nH]c(=O)c3Cl)CC2)nc1 [Example 521, 6-[4-(3-[2-[(5-Chloro-6-oxo-1,6-dihydropyridazin-4-yl)oxy]ethoxy]propanoyl)piperazin-1-yl]pyridine-3-carbonitrile] | < 100
26 | O=C(CCOCCOc1cn[nH]c(=O)c1Cl)N1CCN(c2ncc(Cl)cn2)CC1 [Example 522, 4-Chloro-5-(2-[3-[4-(5-chloropyrimidin-2-yl)piperazin-1-yl]-3-oxopropoxy]ethoxy)-2,3-dihydropyridazin-3-one] | < 100
27 | N#Cc1ccc(N2CCN(C(=O)CNCCCOc3cn[nH]c(=O)c3C(F)(F)F)CC2)nc1 [Example 524] | 100 to 1000
28 | N#Cc1ccc(N2CCN(C(=O)CCCOCCOc3cn[nH]c(=O)c3C(F)(F)F)CC2)nc1 [Example 525, 6-[4-[4-(2-[[6-Oxo-5-(trifluoromethyl)-1,6-dihydropyridazin-4-yl]oxy]ethoxy)butanoyl]piperazin-1-yl]pyridine-3-carbonitrile] | < 100
29 | CN(CCOCCCN1CCN(c2ccc(C#N)cn2)CC1)c1cn[nH]c(=O)c1C(F)(F)F [Example 526, 6-[4-[3-(2-[Methyl[6-oxo-5-(trifluoromethyl)-1,6-dihydropyridazin-4-yl]amino]ethoxy)propyl]piperazin-1-yl]pyridine-3-carbonitrile] | 100 to 1000
30 | N#Cc1ccc(N2CCN(C(=O)CCOC[C@@H](Nc3cn[nH]c(=O)c3C(F)(F)F)c3ccncc3)CC2)nc1 [Example 527A, 6-(4-[3-[(2S)-2-[[6-Oxo-5-(trifluoromethyl)-1,6-dihydropyridazin-4-yl]amino]-2-(pyridin-4-yl)ethoxy]propanoyl]piperazin-1-yl)pyridine-3-carbonitrile] | < 100
31 | N#Cc1ccc(N2CCN(C(=O)CCOC[C@H](Nc3cn[nH]c(=O)c3C(F)(F)F)c3ccncc3)CC2)nc1 [Example 527B, 6-(4-[3-[(2R)-2-[[6-Oxo-5-(trifluoromethyl)-1,6-dihydropyridazin-4-yl]amino]-2-(pyridin-4-yl)ethoxy]propanoyl]piperazin-1-yl)pyridine-3-carbonitrile] | ≥ 1000
32 | C[C@@H](CC(=O)N1CCN(c2ccc(C#N)cn2)CC1)OCCNc1cn[nH]c(=O)c1C(F)(F)F [Example 528A] | < 100
33 | C[C@H](CC(=O)N1CCN(c2ccc(C#N)cn2)CC1)OCCNc1cn[nH]c(=O)c1C(F)(F)F [Example 528B] | < 100
34 | N#Cc1ccc(N2CCN(C(=O)CCOCC(CO)Nc3cn[nH]c(=O)c3C(F)(F)F)CC2)nc1 (centres unmarked) [Example 529, 6-[4-[3-(3-Hydroxy-2-[[6-oxo-5-(trifluoromethyl)-1,6-dihydropyridazin-4-yl]amino]propoxy)propanoyl]piperazin-1-yl]pyridine-3-carbonitrile] | < 100
35 | C[C@@H](COCCC(=O)N1CCN(c2ccc(C#N)cn2)CC1)Oc1cn[nH]c(=O)c1C(F)(F)F [Example 530A, 6-(4-[3-[(2S)-2-[[6-Oxo-5-(trifluoromethyl)-1,6-dihydropyridazin-4-yl]oxy]propoxy]propanoyl]piperazin-1-yl)pyridine-3-carbonitrile] | < 100
